From patent EP3287466B1, “AMORPHOUS PICEATANNOL 3'-O-GLUCOSIDE AND PREPARATION METHOD THEREOF” (KPC Pharmaceuticals, Inc., priority 2015, dated 2016) come the findings set out here.

A short description of this series: Solubility test (shaken 30 min to saturation, content measured by HPLC). In kind it is physicochemical. The conditions noted are these: shaken for 30min to saturation; for piceatannol 3'-O-glucoside solubility, 0.9% aqueous solution of Sodium chloride: in 0.9wt% aqueous solution of sodium chloride. The method, then:
Appropriate amounts of samples 1 to 4 and raw material sample were taken. Water, 0.9wt% aqueous solution of sodium chloride were added, respectively, and shaken for 30min, respectively, to dissolve the sample to saturation. The above solutions were taken and subjected to HPLC to measure the content of piceatannol 3'-O-glucoside in the solutions. Table 1. Comparison of the results of piceatannol 3'-O-glucoside solubility (mg/ml)

Values after ≈ are worked out from the molar mass of the structure shown.

For the compound `OC[C@H]1O[C@@H](Oc2cc(/C=C/c3cc(O)cc(O)c3)ccc2O)[C@H](O)[C@@H](O)[C@@H]1O` [Raw material sample, piceatannol 3'-O-glucoside], the “piceatannol 3'-O-glucoside solubility, 0.9% aqueous solution of Sodium chloride” value (30 min) stood at 4.67 mg/mL. As for `OC[C@H]1O[C@@H](Oc2cc(/C=C/c3cc(O)cc(O)c3)ccc2O)[C@H](O)[C@@H](O)[C@@H]1O` [Sample 1, piceatannol 3'-O-glucoside], the “piceatannol 3'-O-glucoside solubility, 0.9% aqueous solution of Sodium chloride” value (30 min) worked out at 14.36 mg/mL. Still for that read-out and setting: the value for `OC[C@H]1O[C@@H](Oc2cc(/C=C/c3cc(O)cc(O)c3)ccc2O)[C@H](O)[C@@H](O)[C@@H]1O` [Sample 2, piceatannol 3'-O-glucoside] was 14.19 mg/mL. Take `OC[C@H]1O[C@@H](Oc2cc(/C=C/c3cc(O)cc(O)c3)ccc2O)[C@H](O)[C@@H](O)[C@@H]1O` [Sample 3, piceatannol 3'-O-glucoside]: the solubility (usually the concentration that dissolves in the medium under given conditions) at 0.5 h (water, in water, read-out: piceatannol 3'-O-glucoside solubility, Water) came to 15.2 mg/mL (≈ 37.5 mM).

Regarding `OC[C@H]1O[C@@H](Oc2cc(/C=C/c3cc(O)cc(O)c3)ccc2O)[C@H](O)[C@@H](O)[C@@H]1O` [Sample 4, piceatannol 3'-O-glucoside], the “piceatannol 3'-O-glucoside solubility, 0.9% aqueous solution of Sodium chloride” value (30 min) amounted to 14.31 mg/mL. For the setting “in water, 30 min”, the “piceatannol 3'-O-glucoside solubility, Water” value amounted to 14.45 mg/mL.
